The values below come from US9593149B2, “Amylin and calcitonin receptor agonist” (Novo Nordisk A/S, priority 2014, dated 2017).

The structures appear in SMILES notation. Converted amounts (≈) assume the structure as drawn. Numbered stars: 1 amine (or outer) side, 2 acyl side, 3 side chain; on linkers, the order of the positions; unused ones are H or OH. Peptide text beside a SMILES is read from it. * marks the point of attachment. C20 diacid = O=C(O)CCCCCCCCCCCCCCCCCCC(=O)*; C18 diacid = O=C(O)CCCCCCCCCCCCCCCCC(=O)*; γGlu = O=C(O)[C@H](CCC(=O)[*:2])N[*:1]

A short description of series [1]: Assay (IV) determination of solubility. Format: physicochemical. How it is done:
Assay (IV)—Determination of Solubility
The mimylin peptide was dissolved in water at ˜500 nmol/ml and mixed 1:1 with a series of buffers (100 mM glycylglycine pH 3.0, 100 mM glycylglycine pH 4.0, 100 mM glycylglycine pH 5.0, 100 mM bistrispropane pH 6.0, 100 mM bistrispropane pH 6.5, 100 mM bistrispropane pH 7.0, 100 mM bistrispropane pH 7.5, 100 mM bistrispropane pH 8.0).

The target of series [2] is T1, rat calcitonin receptor (Rattus norvegicus, UniProt P32214).
T1 construct: expressed in transfected cells; host or cells: BHK tk'ts 13 (transient, FuGENE 6)
T1 sequence (P32214 25-479 isoform P32214-2 limits assumed): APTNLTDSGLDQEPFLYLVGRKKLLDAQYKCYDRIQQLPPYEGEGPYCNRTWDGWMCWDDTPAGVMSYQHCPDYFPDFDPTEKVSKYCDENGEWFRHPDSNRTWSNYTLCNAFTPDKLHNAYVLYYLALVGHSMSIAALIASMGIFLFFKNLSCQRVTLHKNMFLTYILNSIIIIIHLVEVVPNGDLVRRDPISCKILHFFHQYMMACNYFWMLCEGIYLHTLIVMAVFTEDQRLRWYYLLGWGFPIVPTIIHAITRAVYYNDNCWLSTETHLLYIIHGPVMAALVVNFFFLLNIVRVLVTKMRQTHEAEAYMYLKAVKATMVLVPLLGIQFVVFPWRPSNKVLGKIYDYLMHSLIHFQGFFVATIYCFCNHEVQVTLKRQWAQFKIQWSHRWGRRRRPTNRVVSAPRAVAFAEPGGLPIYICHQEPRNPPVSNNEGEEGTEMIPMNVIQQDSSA
Put plainly: Assay (VIII) binding to the rat calcitonin receptor. As to conditions: membranes; read-out: rCT-R binding IC50. In a few lines: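 Competition binding on membranes from BHK tk'ts 13 cells transiently transfected with rat calcitonin receptor, otherwise run as the human receptor assay. Plates washed in cold HBSS, lysed in 0.1 M NaOH/1% SDS and scintillation-counted. IC50 from one-site competition fit as affinity measure.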

Series [3] can be described thus: Assay (IX) pK, T½ in mini-pig. Format: in vivo, Göttingen mini-pigs. As to conditions: i.v. As for the experimental part:
Assay (IX)—pK—Determination of T½ in Mini-Pig
Pharmacokinetic (PK) studies in Göttingen mini-pigs were conducted in order to determine the T½ of the mimylin compound according to the Examples as indicated after i.v. administration.
T½ values of the amylin analogues of the invention is determined by pharmacokinetic studies in female Göttingen mini-pigs from Ellegaard Göttingen Minipigs ApS and the principles of laboratory animal care are followed.
An acclimatisation period of approximately 6-10 days was allowed before the animals entered the study. At start of the acclimatisation period the mini-pigs were about 5 to 12 months old and in the weight range of 15-35 kg. The mini-pigs had two central venous catheters inserted which were used for blood sampling.
The studies were conducted in an animal room which was illuminated to give a cycle of approximately 12 hours light and 12 hours darkness. The animals were housed individually. The animals had free access to domestic quality drinking water during the study, and no food restrictions applied for PK studies. The animals were weighed on arrival and on the days of dosing.
In the present studies the test substances were administered intravenously in approximately 5 nmol/kg dose. The animals received a single intravenous injection in one central venous catheter and blood sampling was performed from the other catheter, where possible. Each test substance was given to typically three but in some cases two or four animals.
A full plasma concentration-time profile, employing 12-16 sampling points, was obtained from each animal. In example blood samples were collected according to the following schedule:
After Intravenous Administration:
Pre-dose (0), 0.5, 1, 2, 4, 6, 8, 12, 24, 48, 72, 96, 120, 168 and 240 hours after injection. In some cases also additional blood samples up to 288 hours post injection were taken.
At each sampling time, 0.5 to 2 ml of blood was drawn from each animal. The blood samples were taken via the central venous catheter.
The 0.8 mL blood samples were collected into EDTA test tubes (8 mM EDTA). Blood samples were kept on ice for max 20 min. before centrifugation. Plasma was separated using centrifugation (i.e. at 4° C., 10 min., 2000G) and was immediately transferred to Micronic tubes on dry ice. Approximately 200 μl plasma was transferred to each Micronic tube. The plasma was stored at −20° C. until assayed. The plasma samples were assayed for the content of compound using LCMS.
The plasma concentration-time profiles were analysed by a non-compartmental pharmacokinetic analysis (NCA) using Phoenix WinNonlin 6.3 (Pharsight Inc., Mountain View, Calif., USA). NCA was performed using the individual plasma concentration-time profiles from each animal. T½ is the terminal half-life=In2/λz and was determined from λz, the first order rate constant associated with the terminal (log-linear) portion of the curve, estimated by linear regression of time vs. log concentration.
MS-Method for Amylin and Mimylin Quantification
40 μl plasma is diluted with 120 μl 66.67% EtOH+1% HCOOH and mixed. Centrifuged for 20 min. at 13000 rpm, 4° C. The supernatant is analyzed by an LC-MS method on a Sciex API 3000 and quantitated with a standard made up in plasma

Series [4] can be described thus: Assay (XV) subcutaneous PK in LYD-pigs, co-formulated or co-dosed with liraglutide. The format is in vivo. The note with it: for Cmax/D / T½ (hous): LYD-pigs s.c. As for the experimental part:
The studies were performed in female LYD pigs of SPF origin delivered from Lars Jonson, Hillerødvej 70, Lynge.
Before the animals arrived, the animal rooms and pens were cleaned and disinfected with Virkon S. During the study, the animal rooms were cleaned and washed regularly.
The pigs were group housed during the acclimatisation period. The pigs were fitted with a central venous catheter while under anaesthesia and after the single housed after catheterization in pens ≧3.1 m^2 with straw as bedding. The temperature in the rooms was set at 20−23° C. and the relative humidity to 30-70%. The rooms were illuminated to give a cycle of 12 hours light and 12 hours darkness. Light was on from 07.00 to 19.00 h.
The formulations was prepared similarly and filled in cartridges in all cases.
The animals were dosed subcutaneously as follows.
The s.c. dosing was performed in 4 mm depth, in a site of injection which was secured on beforehand by ultrasound to avoid muscular tissue or heavy vascularization. Dosing was made using NovoPen®4 and needle Novofine 28 G and a needle stopper to ensure 4 mm depth of injection. The needle was kept in the subcutis for 10 seconds after the injection to secure deposition of compound. […] The co-formulation was administered as one injection. Study was performed as a cross over study with adequate wash out between dosings.
Blood was sampled at predefined time points for up till 15 days post dosing to adequately cover the full plasma concentration-time profile of the mimylin derivative. Blood samples were drawn from a central venous catheter to jugularis made through the catheter which was afterwards flushed with 10 ml 0.9% NaCl.
For each blood sampling time point approximately 0.8 mL of whole blood was collected in a 1.5 mL EDTA coated tube, and the tube was gently turned to allowing mixing of the sample with the anticoagulant. Blood samples (for example 0.8 mL) were collected in EDTA buffer (8 mM) and then centrifuged at 4° C. and 2000 G for 10 minutes. Plasma was pipetted into Micronic tubes on dry ice, and kept at −20° C. until analysis.
Individual plasma concentration-time profiles were analysed by a non-compartmental model in Phoenix WinNonlin version 6.3 (Pharsight Inc., Mountain View, Calif., USA).
The area under the plasma concentration versus time curve (AUC, [time×concentration]) was calculated (by the Pharsight programme) after subcutaneous administration, typically until 240-288 hours post dosing, or until last measured concentration. The AUC was calculated and given as AUCinf-pred and dose normalized.
Results of co-formulation studies in LYD-pigs are summarized below

Setting [5] is: Co-formulation liraglutide + Ex #46.

With `CC(C)C[C@H](NC(=O)[C@H](C)NC(=O)[C@H](C)NC(=O)[C@@H](NC(=O)[C@H](CO)NC(=O)[C@H](CC(C)C)NC(=O)[C@H](CCC(=O)O)NC(=O)[C@H](CO)NC(=O)[C@H](C)NC(=O)CC[C@H](NC(=O)CCCCCCCCCCCCCCCCCCC(=O)O)C(=O)O)[C@@H](C)O)C(=O)NCC(=O)N[C@@H](CCCNC(=N)N)C(=O)N[C@@H](CC(C)C)C(=O)N[C@@H](CO)C(=O)N[C@@H](C)C(=O)N[C@@H](CCC(=O)O)C(=O)N[C@@H](CC(C)C)C(=O)N[C@@H](Cc1cnc[nH]1)C(=O)N[C@@H](CCC(=O)O)C(=O)N[C@@H](CC(C)C)C(=O)N[C@@H](C)C(=O)N[C@H](C(=O)N[C@@H](Cc1ccc(O)cc1)C(=O)N1CCC[C@H]1C(=O)N[C@@H](CCCNC(=N)N)C(=O)N[C@H](C(=O)N[C@@H](CCC(=O)O)C(=O)N[C@H](C(=O)NCC(=O)N[C@@H](CO)C(=O)NCC(=O)N[C@@H](CO)C(=O)N1CCC[C@H]1C(N)=O)[C@@H](C)O)[C@@H](C)O)[C@@H](C)O` [compound 56, [N-terminal(C20 diacid-gGlu), des1, 23Y, 30S, 31G]mimylin] ({C20 diacid-γGlu}-ASELSTAALGRLSAELHELATYPRTETGSGSP-NH2), the Solubility result in series [1] (pH 3.0), in series [1] (pH 4.0), in series [1] (pH 5.0), in series [1] (pH 6.0), in series [1] (pH 6.5) and in series [1] (pH 7.0) was “≧200 μM” in each case. Further, the Solubility entry in series [1] (pH 7.5) and in series [1] (pH 8.0) was “≧200 μM” in each case. Moreover, in series [2], the IC50 was determined as 0.202 nM. In addition, in series [3], the “PK mini pig iv T½” value is 88 h.
For `CC(C)C[C@H](NC(=O)[C@H](C)NC(=O)[C@H](C)NC(=O)[C@@H](NC(=O)[C@H](CO)NC(=O)[C@H](CC(C)C)NC(=O)[C@H](CCC(=O)O)NC(=O)[C@H](CO)NC(=O)[C@H](C)NC(=O)CC[C@H](NC(=O)CCCCCCCCCCCCCCCCC(=O)O)C(=O)O)[C@@H](C)O)C(=O)NCC(=O)N[C@@H](CCCNC(=N)N)C(=O)N[C@@H](CC(C)C)C(=O)N[C@@H](CO)C(=O)N[C@@H](C)C(=O)N[C@@H](CCC(=O)O)C(=O)N[C@@H](CC(C)C)C(=O)N[C@@H](Cc1cnc[nH]1)C(=O)N[C@@H](CCC(=O)O)C(=O)N[C@@H](CC(C)C)C(=O)N[C@@H](C)C(=O)N[C@H](C(=O)N[C@@H](CC(C)C)C(=O)N1CCC[C@H]1C(=O)N[C@@H](CCCNC(=N)N)C(=O)N[C@H](C(=O)N[C@@H](CCC(=O)O)C(=O)N[C@H](C(=O)NCC(=O)N[C@@H](CO)C(=O)NCC(=O)N[C@@H](CO)C(=O)N1CCC[C@H]1C(N)=O)[C@@H](C)O)[C@@H](C)O)[C@@H](C)O` [Ex. #46, [N-terminal(C18 diacid-gGlu), des1, 30S, 31G]mimylin] ({C18 diacid-γGlu}-ASELSTAALGRLSAELHELATLPRTETGSGSP-NH2), the Solubility entry in series [1] (pH 3.0), in series [1] (pH 4.0), in series [1] (pH 5.0), in series [1] (pH 6.0), in series [1] (pH 6.5) and in series [1] (pH 7.0) was “≧200 μM” throughout. Besides, the Solubility result in series [1] (pH 7.5) and in series [1] (pH 8.0) was “≧200 μM” each time. The “PK mini pig iv T½” value in series [3] is given as 118 h. For the same compound, the “Cmax/D” value in series [4] (Co-dosing liraglutide + Ex #46) is 5.2 kg/L; in series [4] (setting [5]) it was 5.7 kg/L. For the same compound, the “T½ (hous)” value in series [4] (Co-dosing liraglutide + Ex #46) was 129 hous; in series [4] (setting [5]), 133 hous. In addition, the “effect on PK profile of the co-formulated peptide” value in series [4] (administered as co-formulations to LYD pigs) is “do not affect the PK profile of liraglutide”.
Consider `CC(C)C[C@H](NC(=O)CNC(=O)[C@H](CO)NC(=O)[C@H](C)NC(=O)CC[C@H](NC(=O)CCCCCCCCCCCCCCCCC(=O)O)C(=O)O)C(=O)N[C@@H](CO)C(=O)N[C@H](C(=O)N[C@@H](C)C(=O)N[C@@H](C)C(=O)N[C@@H](CC(C)C)C(=O)NCC(=O)N[C@@H](CCCNC(=N)N)C(=O)N[C@@H](CC(C)C)C(=O)N[C@@H](CO)C(=O)N[C@@H](CCC(N)=O)C(=O)N[C@@H](CCC(=O)O)C(=O)N[C@@H](CC(C)C)C(=O)N[C@@H](Cc1cnc[nH]1)C(=O)N[C@@H](CCC(=O)O)C(=O)N[C@@H](CC(C)C)C(=O)N[C@@H](CCC(N)=O)C(=O)N[C@H](C(=O)N[C@@H](Cc1ccc(O)cc1)C(=O)N1CCC[C@H]1C(=O)N[C@@H](CCCNC(=N)N)C(=O)N[C@H](C(=O)N[C@@H](CCC(=O)O)C(=O)N[C@H](C(=O)NCC(=O)N[C@@H](CO)C(=O)NCC(=O)N[C@H](C(=O)N[C@@H](Cc1ccc(O)cc1)C(N)=O)[C@@H](C)O)[C@@H](C)O)[C@@H](C)O)[C@@H](C)O)[C@@H](C)O` [compound 110, [N-terminal(C18 diacid-gGlu), des1, 4G, 15Q, 21Q, 23Y, 30S, 31G, 32T, 33Y]mimylin] ({C18 diacid-γGlu}-ASGLSTAALGRLSQELHELQTYPRTETGSGTY-NH2), for which the Solubility result in series [1] (pH 3.0), in series [1] (pH 4.0), in series [1] (pH 6.0), in series [1] (pH 6.5), in series [1] (pH 7.0) and in series [1] (pH 7.5) was “≧200 μM” each time. Further, the Solubility entry in series [1] (pH 8.0) is “≧200 μM”. Also, the solubility at 18 h in series [1] (pH 5.0) was determined as 149 µM (≈ 569 µg/mL). Besides, the IC50 in series [2] is 0.013 nM. Besides, the “PK mini pig iv T½” value in series [3] is reported as 32 h.
